Data as given in ChEMBL document CHEMBL1201862, “PubChem BioAssay data set” (2004).
Active and inactive are the calls of the source.

Columns and labels:
[1] = cells
[2] = molecular target: T1, Oxysterols receptor LXR-beta (Homo sapiens, UniProt P55055); format: functional, cell-based;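 note: Cell-based luminescence dose-response assay of agonist activity at LXR, run as a confirmatory counterscreen to a daf-12 agonist screen; agonist potency from rising luciferase signal of a Gal4-LXR reporter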
T1 sequence (P55055 whole entry): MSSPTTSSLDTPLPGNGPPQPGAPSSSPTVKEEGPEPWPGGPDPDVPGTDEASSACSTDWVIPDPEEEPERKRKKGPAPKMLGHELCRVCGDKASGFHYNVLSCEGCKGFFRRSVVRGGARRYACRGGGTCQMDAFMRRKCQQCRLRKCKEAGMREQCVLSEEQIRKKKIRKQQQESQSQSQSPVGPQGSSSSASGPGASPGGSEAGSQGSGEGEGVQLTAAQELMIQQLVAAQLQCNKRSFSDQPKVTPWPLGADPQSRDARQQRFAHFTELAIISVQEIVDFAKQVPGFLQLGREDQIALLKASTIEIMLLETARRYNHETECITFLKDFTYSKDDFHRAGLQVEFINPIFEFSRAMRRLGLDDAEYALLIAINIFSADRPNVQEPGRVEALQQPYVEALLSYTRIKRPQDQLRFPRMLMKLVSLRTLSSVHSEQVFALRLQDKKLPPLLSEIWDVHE

[3] = cells; format: functional, cell-based
[4] = molecular target: T2, Trace amine-associated receptor 1 (Homo sapiens, UniProt Q96RJ0); assay: Counterscreen for agonists of the human trace amine associated receptor 1 (hTAAR1): Fluorescence-based cell-based high throughput dose response assay to identify hTAAR1 agonist that also desensitize TAAR1 receptor response.; format: functional
T2 sequence (Q96RJ0 whole entry): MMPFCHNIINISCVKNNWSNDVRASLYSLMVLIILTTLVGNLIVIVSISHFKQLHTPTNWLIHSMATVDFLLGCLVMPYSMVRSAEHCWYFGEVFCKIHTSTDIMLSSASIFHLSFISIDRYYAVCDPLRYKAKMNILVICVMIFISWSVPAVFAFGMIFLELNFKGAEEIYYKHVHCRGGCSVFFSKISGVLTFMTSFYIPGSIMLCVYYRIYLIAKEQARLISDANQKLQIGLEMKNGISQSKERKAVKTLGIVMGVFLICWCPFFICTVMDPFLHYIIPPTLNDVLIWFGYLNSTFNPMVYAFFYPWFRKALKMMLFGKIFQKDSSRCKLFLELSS

[5] = molecular target: T2, Trace amine-associated receptor 1; assay: Fluorescence-based cell-based high throughput dose response assay to identify agonists of the human trace amine associated receptor 1 (TAAR1).; format: functional
[6] = cells; format: functional, cell-based; remark: listed apart in the source
[7] = OVCAR-3 cell viability loss – plate reader, dry powder samples, PAX8 inhibitor project, dose response (AID 743044); format: functional, cell-based
[8] = A2780 cell killing – plate reader, dry powder samples, cytotoxicity control, dose response (AID 743046); format: functional, cell-based
[9] = molecular target: Paired box protein Pax-8 (Homo sapiens, UniProt Q06710); assay: PAX8 transcriptional activity inhibition in RMG-I – RMG-I cells, luciferase, cherry-pick, dose response (AID 687027); format: functional, cell-based;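 note: luciferase reporter driven by Pax8 target thyroperoxidase promoter measured by SteadyGlo luminescence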
Paired box protein Pax-8, sequence (Q06710 whole entry): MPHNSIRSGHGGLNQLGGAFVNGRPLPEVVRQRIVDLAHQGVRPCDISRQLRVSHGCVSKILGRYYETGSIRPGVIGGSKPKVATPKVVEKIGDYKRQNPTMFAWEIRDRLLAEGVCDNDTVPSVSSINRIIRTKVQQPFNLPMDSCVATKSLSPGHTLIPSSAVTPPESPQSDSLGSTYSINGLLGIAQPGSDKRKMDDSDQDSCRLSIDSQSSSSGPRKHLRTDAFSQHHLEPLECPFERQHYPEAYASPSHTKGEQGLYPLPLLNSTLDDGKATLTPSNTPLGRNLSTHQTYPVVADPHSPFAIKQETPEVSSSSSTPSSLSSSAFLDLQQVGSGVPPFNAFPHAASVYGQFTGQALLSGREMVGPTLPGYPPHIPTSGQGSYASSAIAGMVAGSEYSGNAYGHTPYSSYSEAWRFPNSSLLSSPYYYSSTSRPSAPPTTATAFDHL

[10] = IGROV1 cell killing – plate reader, dry powder samples, PAX8 inhibitor project, dose response (AID 743043); format: functional, cell-based; conditions: IGROV-1
[11] = cytotoxicity in MITF-independent A375 cells – cell-based, CellTiter-Glo luminescence, dry powder, set 4, counter-screen for MITF inhibitor project, dose response (AID 624364); format: functional; conditions: A-375;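 note: A375 melanoma cells are MITF independent so this is a counter screen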
[12] = viability loss in MITF-independent A375 cells – cell-based, CellTiter-Glo luminescence, dry powder, set 2, counter-screen for MITF inhibitor project, dose response (AID 624489); format: functional; conditions: A-375;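 note: actives are compounds lowering A375 viability meaning general cytotoxicity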
[13] = viability loss in HEK293 cells – cell-based, plate reader, cherry-picked samples, cytotoxicity control, dose response (AID 743446); format: functional
[14] = blockers of bursicon-stimulated LGR2 cAMP reporter – cell-based, HEK293, CRE-luciferase reporter, cherry pick, set 2, dose response (AID 743343); format: functional;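 note: transfected cells were stimulated with diluted bursicon conditioned medium after compound addition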
[15] = toxicity toward HepG2 liver cells – cell-based, plate reader, cherry-pick, antagonist series, cytotoxicity control, dose response (AID 743416); format: functional
[16] = blockade of melanocortin 4 receptor signaling – cell-based, plate reader, cherry pick, counter-screen for LGR2 antagonist project, dose response (AID 743444); format: functional;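 note: transfected HEK 293 cells stimulated with alpha-MSH peptide; potency of inhibitors of the alpha-MSH evoked signal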
[17] = A549 cell cytotoxicity, dose response, cytotoxicity control, plate reader, cherry-pick, antagonist series (AID 743412); format: functional, cell-based
[18] = molecular target: T1, Oxysterols receptor LXR-beta; assay: LXR agonists, Gal4 luciferase reporter, dose response, counter-screen for ssDAF-12 agonist project, cell-based, luminescence, HEK293, S. stercoralis campaign (AID 720737); format: functional; conditions: read-out: IC50 (the source's name)
[19] = Luminescence-based cell-based high throughput dose response assay to identify activators of the DAF-12 from the parasite S. stercoralis (ssDAF-12).; format: functional

For `Cc1ccccc1N=Nc1c(O)[nH]c2ccccc12`, the EC50 [1] was > 67.5 µM (inactive) and the EC50 [2] was > 67.5 µM (inactive).
With `CN(CCc1ccccc1)C(=O)CC1C(=O)NCCN1Cc1ccccn1` (stereo unspecified) the IC50 [3] was > 29.9 µM (inactive), the IC50 [4] was 9.93 µM (active) and the EC50 [5] was 3.05 µM (active). The EC50 [6] was > 29.9 µM (inactive).
For `COc1ccccc1S(=O)(=O)N(C)C[C@H]1Oc2cc(C#CCC3CCCC3)ccc2S(=O)(=O)N([C@@H](C)CO)C[C@@H]1C`, the AC50 [7] was 17.1 µM (active), the AC50 [8] was 52.2 µM (active) and the AC50 [9] was 7.59 µM (active). The AC50 [10] was 62.2 µM (active).
In the case of `CC(C)[C@H](NS(=O)(=O)c1ccc(F)cc1F)C(=O)N1CCC[C@H]1C(=O)NCCc1ccccc1Cl`, the IC50 [3] is reported as > 29.9 µM (inactive), the IC50 [4] is reported as 4.65 µM (active) and the EC50 [5] is reported as 2.89 µM (active). For the same compound, the EC50 [6] was > 29.9 µM (inactive).
With `CCOC(=O)N[C@@H](Cc1cccnc1)C(=O)N1CCC[C@H]1C(=O)NCCc1ccccc1Cl` the IC50 [3] was > 29.9 µM (inactive), the IC50 [4] was 8.93 µM (active) and the EC50 [5] was 3.16 µM (active). The EC50 [6] was > 29.9 µM (inactive).
In the case of `CCN1CCN(C2=C(Nc3ccccc3)C(=O)c3ccccc3C2=O)CC1`, the AC50 [11] is reported as 46.6 µM (active) and the AC50 [12] is reported as 25.5 µM (active).
For `C[C@H]1CN([C@@H](C)CO)C(=O)Cc2cc(NS(=O)(=O)c3ccc(Cl)cc3)ccc2O[C@@H]1CN(C)Cc1ccc(Cl)c(Cl)c1`, the AC50 [13] was 19.6 µM (active), the AC50 [14] was 20.4 µM (active) and the AC50 [15] was 11.3 µM (active). The AC50 [16] was 12.7 µM (active) and the AC50 [17] was 10.2 µM (active).
In the case of `O=C(NC1=C(N2CCOCC2)C(=O)c2ccccc2C1=O)c1ccc(Br)cc1`, the AC50 [11] is reported as > 70 µM (inactive) and the AC50 [12] is reported as 28.9 µM (active).
In the case of `Fc1cccc(Cl)c1/C=N/Nc1ccccn1`, the EC50 [1] is reported as > 67.6 µM (inactive) and the EC50 [2] is reported as > 67.6 µM (inactive).
In the case of `O=C(Nc1ccccc1)C(=O)c1c[nH]c2ccccc12`, the EC50 [18] is reported as > 67.5 µM (inactive) and the IC50 [19] is reported as > 67.5 µM (inactive).
